Measured values as given in patent US11446276B2, “Extreme low dose THC as a therapeutic and prophylactic agent for Alzheimer's disease” (University of South Florida, priority 2015, dated 2022).
Entries after “also recorded” stand apart in the source; their conditions may differ.

Tests used:
[1] = target: acetylcholinesterase (AChE) (Homo sapiens, UniProt P22303); conditions: THC 50 μM; cited from earlier work
[2] = tested on: Aβ40 in N2a/AβPPswe cells; assay: Aβ40 ELISA after one or two THC administrations 24 hours apart; type: cell-based, human; conditions: FIG. 9B
Procedure: Studies were conducted on multiple dosings of THC. N2a/AβPPswe cells, as discussed in Example 1, were suspended to 2×10^5/mL, 3 mL plated into each well, and grown in DMEM with 10% fetal bovine serum, 100 U/mL penicillin, 100 μg/mL streptomycin, and 400 μg/mL G418 (Invitrogen), at 37° C. in the presence of 5% CO2. N2a/AβPPswe cells were subcultured using trypsin, and pipetted numerous times to ensure cells were separated into individual cells. Cells were counted, as provided in Example 1, and proper amount of cell medium and fresh medium was added into new flasks according to the ratio of dilution. Pipetting was performed 10 times to homogenize cells, and 3 mL of cells were seeded into medium into each 6 well plate. When one pipette was used up, the cells were mixed in the flask before using them for the next pipette. Compounds were suspended in DMSO, as provided in Example 1.
12 hours after plating, cells were treated with various concentrations of Δ9-THC (T4764-1ML Sigma Aldrich, Merck KGaA; Darmstadt, Germany), with untreated N2a/AβPPswe cells used as a control. Multiple dosing regimens were carried out 24 hours after initial treatment. Treatment was then washed out, i.e. the medium was then removed from the cultures and 3 mL of media containing the treatment compounds were added. […]

[3] = tested on: Aβ40 in N2a/AβPPswe cells; assay: Aβ40 ELISA of N2a/AβPPswe cells treated with THC or caffeine; type: cell-based, human; conditions: for Aβ40 levels versus control: THC 0.25-2500 nM or caffeine 0.625-10 μM; for Percentage of decreased Aβ40: THC 2.5 μg/mL compared with the control; for Aβ40 (pg/mL) in THC-treated cells: THC 2.5 μg/mL, N2a/AβPPswe cells
[4] = target: Aβ peptide amino acids 1-10, the major B-cell epitope (Homo sapiens, UniProt P05067); assay: ELISA for THC interference with the major B cell epitope of Aβ; type: binding; conditions: each increasing concentration of THC; FIG. 3B
Chain of Aβ peptide amino acids 1-10, the major B-cell epitope (P05067 672-711 limits assumed): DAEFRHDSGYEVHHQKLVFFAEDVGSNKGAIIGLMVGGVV
Procedure: In untreated samples, Aβ peptide increased in intensity for the first 20 minutes, followed by a plateauing of fluorescence at around 30 minutes, at which time the intensity remained constant for the duration of the study. […] Therefore, THC's direct interaction with the Aβ peptide will not dampen an immune response to clear the Aβ peptide. Further analysis with western blot was performed measuring the anti-aggregation properties of THC with Aβ peptide.

GSK-3β = assay: Western blot of GSK-3β in N2a/AβPPswe cells; type: cell-based
Procedure: Next, the effects of THC on amyloid protein processing were analyzed by testing total GSK-30 and phosphorylated GSK-3β (pGSK-3β) levels. β-actin, a housekeeping gene, was used as a control to indicate that GSK-3β was expressed at a constant rate and that the changes in intensity were not related to the change in expression amount.
The cellular effects of THC were next analyzed. As Aβ processing is mediated by GSK-3β, protein levels were tested. N2a/AβPPswe cells were treated with 2.5 nM or 0.25 nM of THC, as provided in Example 1, and N2a/AβPPswe cell lysate were collected, quantified, and aliquoted.
N2a/AβPPswe cells were cultured as provided above and Δ9-THC added at 0.25 nM and 2.5 nM, as provided in Example 1. After THC treatment for 48 hours, N2a/AβPPswe cell lysate were collected, quantified, and aliquoted. Using 12% Tris-Glycine gel system (Bio-Rad Laboratories, Inc., Hercules, Calif.), protein were separated by electrophoresis and semi-dry transferred to a polyvinylidene difluoride (PVDF) membrane. GSK-3β (Cat #9315, Cell Signaling Technology, Inc. Danvers, Mass.) and β-actin (Cat #A54441, Sigma Aldrich, Merck KGaA; Darmstadt, Germany) antibodies were used as primary antibody. After adding secondary antibody (Goat-anti-Rabbit-HRP Cat #4050-05, Southern Biotech, part of Thermo Fisher Scientific, Waltham, Mass.; Anti-mouse IgG-HRP Cat #A9044, Sigma Aldrich, Merck KGaA; Darmstadt, Germany), the membranes were exposed using ECL substrate (Pierce). After membrane was developed, film with bands were scanned, followed by analysis of gel-quantification software (QuantityOne, from Bio-rad).
The effects of combining THC with other compounds was analyzed using a combination of THC and melatonin. Cells were treated with 2.5 nM of THC and 10 μM or 1 μM melatonin, using the methods discussed above, and N2a/AβPPswe cell lysate collected, quantified, and aliquoted. […] After membrane was developed, film with bands were scanned, followed by analysis of gel-quantification software (QuantityOne, from Biorad).

Chain of acetylcholinesterase (AChE) (P22303 32-614): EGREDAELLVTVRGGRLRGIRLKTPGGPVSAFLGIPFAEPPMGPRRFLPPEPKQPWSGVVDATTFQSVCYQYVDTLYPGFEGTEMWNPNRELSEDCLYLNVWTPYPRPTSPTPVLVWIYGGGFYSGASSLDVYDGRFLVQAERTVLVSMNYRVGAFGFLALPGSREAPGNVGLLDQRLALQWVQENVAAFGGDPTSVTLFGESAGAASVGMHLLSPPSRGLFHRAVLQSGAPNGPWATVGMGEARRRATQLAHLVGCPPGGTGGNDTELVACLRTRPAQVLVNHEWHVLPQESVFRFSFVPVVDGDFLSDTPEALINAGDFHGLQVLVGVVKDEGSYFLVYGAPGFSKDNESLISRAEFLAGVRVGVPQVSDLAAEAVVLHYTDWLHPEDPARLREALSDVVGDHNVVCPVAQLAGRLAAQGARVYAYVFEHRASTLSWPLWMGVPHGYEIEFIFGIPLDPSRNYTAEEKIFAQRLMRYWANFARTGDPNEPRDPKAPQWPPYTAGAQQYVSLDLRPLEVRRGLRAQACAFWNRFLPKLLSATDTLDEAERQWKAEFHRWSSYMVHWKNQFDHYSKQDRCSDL

## CCCCCc1cc(O)c2c(c1)OC(C)(C)[C@@H]1CCC(C)=C[C@@H]21 [THC, Δ9-tetrahydrocannabinol]
[1]
  Inhibition of AChE: competitively inhibits
[2]; designated concentrations of THC
  Aβ40 (pg/ml) concentrations after one or two administrations: decreases Aβ40
[2]; from 12 μM and higher concentrations
  Aβ40 in cells treated twice with THC 24 hours apart versus once: significant decrease in Aβ40 concentration compared to cells treated once; also recorded: even greater reduction in Aβ levels
[3]; 6 hours, THC 0.25 nM
  Aβ levels at the lowest dose: minor increase
[3]; 6 hours, FIG. 1A
  Aβ40 levels versus control: dose-dependent decrease; also recorded: significant reduction
[3]; 6 hr
  Percentage of decreased Aβ40: 9.23%
  Aβ40 (pg/mL) in THC-treated cells: 965.827 pg/mL
[3]; 24 hours, FIG. 1B
  Aβ40 levels versus control: dose-dependent decrease; also recorded: exponential drop
[3]; 24 hr
  Percentage of decreased Aβ40: 31.19%
  Aβ40 (pg/mL) in THC-treated cells: 3648.975 pg/mL
[3]; 48 hours, FIG. 1C
  Aβ40 levels versus control: dose-dependent decrease; also recorded: significantly differed more
[3]; 48 hr
  Percentage of decreased Aβ40: 51.24%
  Aβ40 (pg/mL) in THC-treated cells: 2894.175 pg/mL
[4]
  Interference with the major B cell epitope of Aβ (ELISA absorbance): No identified interference; also recorded: no significant difference in absorbance
GSK-3β; THC 0.25 nM and 2.5 nM, 48 hours, FIGS. 5A, 5B
  GSK-3β protein levels (ratio to β-actin): dose-dependent decrease; also recorded: decreases the GSK-3β protein levels
GSK-3β; lowest level of THC from the tests
  GSK-3 levels relative to the control: about half
GSK-3β; ultra-low doses of THC, FIGS. 5A, 5B
  Decrease of GSK-3β protein levels over the untreated control: ≤ 50%
